Values after ≈ are worked out from the molar mass of the structure shown.
What was measured:
VZV strain Ellen = assay: VZV Antiviral (ELISA) Assay in human foreskin fibroblast cells; format: cell-based, varicella-zoster virus; conditions: for IC50: Human alphaherpesvirus 3, Fibroblast, read-out: IC50 (ug/ml) VZV
How it was run: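 First, fibroblasts are infected at multiplicity below 0.1 and kept overnight. The harvested cell mixture then goes onto compound-containing wells for three days at 37° C. Finally, cells are fixed and viral gpII is measured by fluorogenic ELISA.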

HSV-1 = assay: HSV Antiviral (ELISA) Assay in Vero cells; format: cell-based, herpes simplex virus type 1; conditions: HSV-1, Vero cells; for IC50: Human alphaherpesvirus 1, read-out: IC50 (ug/ml) HSV
How it was run: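 Viral replication was quantified by cell-fixed ELISA for HSV glycoprotein D, using a β-galactosidase reporter and fluorogenic umbelliferyl substrate, about 24 h after HSV-1 infection (MOI 0.006) of Vero cells. Compounds, at several concentrations, were added 30 min pre-infection. IC50 was derived from fluorescence relative to the compound-free signal.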

[1] = test system: HCMV recombinant mutant virus (RV145); assay: microbe, parasite or virus in culture; format: cell-based, human cytomegalovirus; conditions: for IC50: Human betaherpesvirus 5, read-out: IC50 ug/ml HCMV, HCMV
How it was run: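 Human foreskin fibroblasts infected with HCMV RV145 carrying a viral-promoter-driven beta-glucuronidase gene, in presence of compound. At 96 h post-infection, lysates assayed for beta-glucuronidase with colorimetric or fluorogenic glucuronide substrate as replication read-out. IC50 estimated from varying inhibitor amounts.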

SMILES | IC50 (ug/ml) VZV (VZV strain Ellen) | % inhibition 10 ug/ml VZV (VZV strain Ellen) | IC50 (ug/ml) HSV (HSV-1) | IC50 ug/ml HCMV [1] | IC50 (VZV strain Ellen) | IC50 (HSV-1) | IC50 [1]
CN(C)c1ccc(Cl)cc1NC(=S)Nc1ccc(NC(=O)c2ccccc2F)cc1 [Example 490] | >10 µg/mL | 68% | 1 µg/mL (≈ 2.26 µM) | 2.5 µg/mL (≈ 5.64 µM) | – | – | –
CC(N=[N+]=[N-])c1ccc(NC(=S)Nc2ccc(NC(=O)c3ccccc3F)cc2)cc1Cl (stereo not shown) [Example 492] | >10 µg/mL | 32% | >10 µg/mL | 2 µg/mL (≈ 4.26 µM) | – | – | –
Nc1nccc(-c2ccc(NC(=S)Nc3ccc(NC(=O)c4ccccc4F)cc3)cc2Cl)n1 [Example 502] | >10 µg/mL | 13% | >10 µg/mL | 1.8 µg/mL (≈ 3.65 µM) | – | – | –
CN(C)c1c(Cl)cccc1NC(=S)Nc1ccc(NC(=O)c2c(F)cccc2F)cc1 [Example 504] | 4.5 µg/mL (≈ 9.76 µM) | 99% | 6 µg/mL (≈ 13 µM) | 2 µg/mL (≈ 4.34 µM) | – | – | –
O=C(Nc1ccc(NC(=S)NCc2cccc(Cl)c2)cc1)c1ccccc1F [Example 511] | >10 µg/mL | 10% | >10 µg/mL | >10 µg/mL | – | – | –
O=C(Nc1ccc(NC(=S)Nc2cc(C(F)(F)F)cc(C(F)(F)F)c2)cc1)c1ccccc1F [Example 517] | >10 µg/mL | 5% | >10 µg/mL | 1.1 µg/mL (≈ 2.19 µM) | – | – | –
Nc1c(Cl)cc(NC(=S)Nc2ccc(NC(=O)c3ccccc3F)cc2)cc1Cl [Example 518] | >10 µg/mL | 32% | 0.25 µg/mL (≈ 0.556 µM) | 4 µg/mL (≈ 8.9 µM) | – | – | –
Nc1c(Br)cc(NC(=S)Nc2ccc(NC(=O)c3ccccc3F)cc2)cc1Br [Example 519] | >10 µg/mL | 18% | 0.4 µg/mL (≈ 0.743 µM) | 1.7 µg/mL (≈ 3.16 µM) | – | – | –
CN(C)c1cc(Cl)cc(NC(=S)Nc2ccc(NC(=O)c3ccccc3F)cc2)c1 [Example 523] | 4 µg/mL (≈ 9.03 µM) | 75% | 0.6 µg/mL (≈ 1.35 µM) | 3.2 µg/mL (≈ 7.22 µM) | – | – | –
O=C(Nc1ccc(NC(=S)Nc2ccc3[nH]nnc3c2)cc1)c1c(F)cccc1F [Example 527] | >10 µg/mL | 20% | >10 µg/mL | >10 µg/mL | – | – | –
O=C(Nc1ccc(NC(=S)Nc2cc(Br)cc(C(F)(F)F)c2)cc1)c1ccccc1F [Example 531] | 6 µg/mL (≈ 11.7 µM) | – | >10 µg/mL | 5 µg/mL (≈ 9.76 µM) | – | – | –
O=C(Nc1ccc(NC(=S)NCc2ccccc2)cc1)c1ccccc1F [Example 536] | >10 µg/mL | – | >10 µg/mL | >10 µg/mL | – | – | –
O=C(Nc1ccc(NC(=S)NCc2ccc(Cl)c(Cl)c2)cc1)c1ccccc1F [Example 538] | 10 µg/mL (≈ 22.3 µM) | – | >10 µg/mL | >10 µg/mL | – | – | –
O=C(Nc1ccc(NC(=S)NCc2ccc3c(c2)OCO3)cc1)c1ccccc1F [Example 540] | >10 µg/mL | – | >10 µg/mL | >0.5 µg/mL | – | – | –
O=C(Nc1ccc(NC(=S)NCc2cc(C(F)(F)F)cc(C(F)(F)F)c2)cc1)c1ccccc1F [Example 543] | >10 µg/mL | – | >10 µg/mL | 0.3 µg/mL (≈ 0.582 µM) | – | – | –
O=C(Nc1ccc(NC(=S)Nc2ccc(OC(F)(F)F)c(Br)c2)cc1)c1ccccc1F [Example 549] | >10 µg/mL | – | >10 µg/mL | >10 µg/mL | – | – | –
O=C(Nc1ccc(NC(=S)NCCc2ccc(F)cc2)cc1)c1ccccc1F [Example 552] | >10 µg/mL | – | >10 µg/mL | >0.5 µg/mL | – | – | –
O=C(Nc1ccc(NC(=S)NCCc2ccc(F)cc2)cc1)c1ccccc1F [Example 553] | – | – | – | – | 7 µg/mL (≈ 17 µM) | > 10 µg/mL | > 0.5 µg/mL
O=C(Nc1ccc(NC(=S)NCCc2cccc(Cl)c2)cc1)c1ccccc1F [Example 563] | 9 µg/mL (≈ 21 µM) | – | >10 µg/mL | >0.5 µg/mL | – | – | –
CC(NC(=S)Nc1ccc(NC(=O)c2ccccc2F)cc1)c1ccccc1 (stereo not shown) [Example 589] | 0.36 µg/mL (≈ 0.915 µM) | – | >10 µg/mL | 7 µg/mL (≈ 17.8 µM) | – | – | –
CC(NC(=S)Nc1ccc(NC(=O)c2ccccc2F)cc1)c1ccc(F)cc1 (stereo not shown) [Example 591] | – | – | – | – | 1.5 µg/mL (≈ 3.65 µM) | > 10 µg/mL | 7 µg/mL (≈ 17 µM)
CC(C)CN(C)c1cc(NC(=S)Nc2ccc(NC(=O)c3ccccc3F)cc2)cc(C(F)(F)F)c1 [Example 596] | >10 µg/mL | – | >10 µg/mL | 2 µg/mL (≈ 3.86 µM) | – | – | –

SMILES | IC50 (ug/ml) VZV (VZV strain Ellen) | % inhibition 10 ug/ml VZV (VZV strain Ellen) | IC50 (ug/ml) HSV (HSV-1) | IC50 ug/ml HCMV [1] | IC50 (VZV strain Ellen) | IC50 (HSV-1) | IC50 [1]
CCCCN(C)c1cc(NC(=S)Nc2ccc(NC(=O)c3ccccc3F)cc2)cc(C(F)(F)F)c1 [Example 598] | >10 µg/mL | – | >10 µg/mL | >10 µg/mL | – | – | –
O=C(Nc1ccc(NC(=S)NCCCc2ccccc2)cc1)c1ccccc1F [Example 628] | 10 µg/mL (≈ 24.5 µM) | – | >10 µg/mL | >10 µg/mL | – | – | –
CN(C)c1cc(CNC(=S)Nc2ccc(NC(=O)c3ccccc3F)cc2)cc(C(F)(F)F)c1 [Example 636] | 5 µg/mL (≈ 10.2 µM) | – | >10 µg/mL | >10 µg/mL | – | – | –
COc1cccc(C(=O)Nc2ccc(NC(=S)NC(C)c3ccc(F)cc3)cc2)c1 (stereo not shown) [Example 753] | >7.5 µg/mL | – | >10 µg/mL | >0.5 µg/mL | – | – | –
COc1ccc(C(=O)Nc2ccc(NC(=S)NC(C)c3ccc(F)cc3)cc2)cc1 (stereo not shown) [Example 754] | 0.2 µg/mL (≈ 0.472 µM) | – | >10 µg/mL | >10 µg/mL | – | – | –
CC(NC(=S)Nc1ccc(NC(=O)c2ccccc2Cl)cc1)c1ccc(F)cc1 (stereo not shown) [Example 755] | 7 µg/mL (≈ 16.4 µM) | – | >10 µg/mL | >10 µg/mL | – | – | –
CC(NC(=S)Nc1ccc(NC(=O)c2ccc(Cl)cc2)cc1)c1ccc(F)cc1 (stereo not shown) [Example 756] | 0.3 µg/mL (≈ 0.701 µM) | – | >10 µg/mL | >10 µg/mL | – | – | –
CC(=O)Oc1ccc(C(=O)Nc2ccc(NC(=S)NC(C)c3ccc(F)cc3)cc2)cc1 (stereo not shown) [Example 757] | 1.5 µg/mL (≈ 3.32 µM) | – | >10 µg/mL | >10 µg/mL | – | – | –
CC(NC(=S)Nc1ccc(NC(=O)c2ccccc2)cc1)c1ccc(F)cc1 (stereo not shown) [Example 758] | – | – | – | – | > 10 µg/mL | > 10 µg/mL | > 10 µg/mL
CC(NC(=S)Nc1ccc(NC(=O)c2ccc(O)cc2)cc1)c1ccc(F)cc1 (stereo not shown) [Example 760] | – | – | – | – | > 10 µg/mL | > 10 µg/mL | > 10 µg/mL
CCCCC(NC(=S)Nc1ccc(NC(=O)c2ccccc2F)cc1)c1ccc(F)cc1 (stereo not shown) [Example 773] | >7.5 µg/mL | – | >10 µg/mL | 1.2 µg/mL (≈ 2.65 µM) | – | – | –
O=C(Nc1ccc(NC(=S)NC(Cc2ccccc2)c2ccc(F)cc2)cc1)c1ccccc1F (stereo not shown) [Example 774] | >7.5 µg/mL | – | >10 µg/mL | 0.5 µg/mL (≈ 1.03 µM) | – | – | –
Cc1ccccc1C(C)NC(=S)Nc1ccc(NC(=O)c2ccccc2F)cc1 (stereo not shown) [Example 775] | >7.5 µg/mL | – | >10 µg/mL | 1 µg/mL (≈ 2.45 µM) | – | – | –
Cc1cccc(C(C)NC(=S)Nc2ccc(NC(=O)c3ccccc3F)cc2)c1 (stereo not shown) [Example 776] | >7.5 µg/mL | – | >10 µg/mL | 0.9 µg/mL (≈ 2.21 µM) | – | – | –
COc1ccc(C(C)NC(=S)Nc2ccc(NC(=O)c3ccccc3F)cc2)cc1 (stereo not shown) [Example 777] | >7.5 µg/mL | – | >10 µg/mL | 1.7 µg/mL (≈ 4.01 µM) | – | – | –
CC(NC(=S)Nc1ccc(NC(=O)c2ccccc2F)cc1)c1ccccc1F (stereo not shown) [Example 778] | – | – | – | – | 3 µg/mL (≈ 7.29 µM) | > 10 µg/mL | 0.8 µg/mL (≈ 1.94 µM)
CC(NC(=S)Nc1ccc(NC(=O)c2ccccc2F)cc1)c1cccc(Cl)c1 (stereo not shown) [Example 779] | >7.5 µg/mL | – | >10 µg/mL | 1.2 µg/mL (≈ 2.8 µM) | – | – | –
CC(NC(=S)Nc1ccc(NC(=O)c2ccccc2F)cc1)c1cccc(Br)c1 (stereo not shown) [Example 780] | 1.2 µg/mL (≈ 2.54 µM) | – | >10 µg/mL | 1 µg/mL (≈ 2.12 µM) | – | – | –
CC(NC(=S)Nc1ccc(NC(=O)c2ccccc2F)cc1)c1ccc(Cl)cc1 (stereo not shown) [Example 781] | 0.6 µg/mL (≈ 1.4 µM) | – | >10 µg/mL | 1.8 µg/mL (≈ 4.21 µM) | – | – | –
Cc1ccc(C(C)NC(=S)Nc2ccc(NC(=O)c3ccccc3F)cc2)cc1 (stereo not shown) [Example 782] | 3 µg/mL (≈ 7.36 µM) | – | >10 µg/mL | 0.9 µg/mL (≈ 2.21 µM) | – | – | –
CC(NC(=S)Nc1ccc(NC(=O)c2ccccc2F)cc1)c1ccccc1Br (stereo not shown) [Example 783] | 0.3 µg/mL (≈ 0.635 µM) | – | >10 µg/mL | 1.1 µg/mL (≈ 2.33 µM) | – | – | –
CC(NC(=S)Nc1ccc(NC(=O)c2ccccc2F)cc1)c1ccccc1Cl (stereo not shown) [Example 784] | 0.7 µg/mL (≈ 1.64 µM) | – | >10 µg/mL | 1.1 µg/mL (≈ 2.57 µM) | – | – | –
